From ChEMBL document CHEMBL2010656, “Design, synthesis and evaluation of isaindigotone derivatives as dual inhibitors for acetylcholinesterase and amyloid beta aggregation” (Bioorg Med Chem, 2012)
Activity calls are given as the source filed them. No cut-off for these calls is given here.

test system: not listed separately; assay: Inhibition of amyloid beta (1 to 40) self-mediated aggregation assessed as change in alpha-helix structure formation at 20 uM after 3 days by CD spectropolarimetric analysis

SMILES	inhibition
O=C(CCN1CCCC1)Nc1ccc(/C=C2\CCn3c2nc2cc(Cl)ccc2c3=O)cc1	inactive

molecular target: Acetylcholinesterase (Electrophorus electricus) (UniProt O42275); assay: Mixed type inhibition of electric eel acetylcholinesterase preincubated for 15 mins by Lineweaver-Burk plot analysis
Sequence (O42275 24-633 limits assumed): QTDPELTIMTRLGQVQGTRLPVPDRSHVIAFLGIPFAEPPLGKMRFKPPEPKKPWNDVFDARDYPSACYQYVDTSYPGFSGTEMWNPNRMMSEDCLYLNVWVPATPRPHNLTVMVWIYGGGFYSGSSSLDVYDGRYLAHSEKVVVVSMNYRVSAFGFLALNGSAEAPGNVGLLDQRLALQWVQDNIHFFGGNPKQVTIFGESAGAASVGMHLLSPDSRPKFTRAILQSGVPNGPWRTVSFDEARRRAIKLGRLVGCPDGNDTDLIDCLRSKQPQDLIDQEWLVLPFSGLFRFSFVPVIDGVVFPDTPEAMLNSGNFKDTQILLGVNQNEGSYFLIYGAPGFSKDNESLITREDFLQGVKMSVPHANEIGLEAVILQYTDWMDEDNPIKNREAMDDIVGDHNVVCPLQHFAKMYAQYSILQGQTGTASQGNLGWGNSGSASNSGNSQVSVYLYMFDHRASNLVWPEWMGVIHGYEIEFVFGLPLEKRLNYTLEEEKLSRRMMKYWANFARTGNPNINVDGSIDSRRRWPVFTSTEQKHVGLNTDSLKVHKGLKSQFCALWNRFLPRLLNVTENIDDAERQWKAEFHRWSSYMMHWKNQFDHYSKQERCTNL

SMILES	inhibition
O=C(CCN1CCCC1)Nc1ccc(/C=C2\CCn3c2nc2cc(Cl)ccc2c3=O)cc1	Active

molecular target: Cholinesterase (Equus caballus, UniProt P81908)
Sequence (P81908 whole entry): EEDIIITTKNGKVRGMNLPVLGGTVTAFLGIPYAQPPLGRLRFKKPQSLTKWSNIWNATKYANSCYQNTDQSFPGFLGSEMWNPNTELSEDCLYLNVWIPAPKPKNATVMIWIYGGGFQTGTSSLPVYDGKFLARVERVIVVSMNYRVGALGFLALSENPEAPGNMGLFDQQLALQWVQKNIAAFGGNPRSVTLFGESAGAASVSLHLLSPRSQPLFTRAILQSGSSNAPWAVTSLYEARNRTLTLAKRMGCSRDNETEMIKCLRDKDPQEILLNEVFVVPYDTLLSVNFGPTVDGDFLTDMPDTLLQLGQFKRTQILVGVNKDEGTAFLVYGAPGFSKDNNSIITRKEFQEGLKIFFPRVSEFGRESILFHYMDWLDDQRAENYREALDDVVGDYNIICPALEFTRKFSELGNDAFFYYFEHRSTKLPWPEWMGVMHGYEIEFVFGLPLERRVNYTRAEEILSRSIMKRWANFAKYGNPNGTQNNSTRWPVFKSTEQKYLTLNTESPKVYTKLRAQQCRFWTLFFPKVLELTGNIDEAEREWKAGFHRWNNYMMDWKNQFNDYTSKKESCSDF
Description: Inhibition of equine serum butyrylcholinesterase using butyrylthiocholine chloride as substrate preincubated for 15 mins before substrate addition by Ellman's method

SMILES	IC50 [µM]
O=C(CCN1CCCCC1)Nc1ccc(/C=C2\CCCn3c2nc2cc(Cl)ccc2c3=O)cc1	5.99
CN(C)CCCNC(=O)c1ccc(/C=C2\CCn3c2nc2cc(Cl)ccc2c3=O)cc1	5.18
O=C(NCCN1CCCC1)c1ccc(/C=C2\CCCn3c2nc2cc(Cl)ccc2c3=O)cc1	6.75
O=C(CC[n+]1ccccc1)Nc1ccc(/C=C2\CCCn3c2nc2cc(Cl)ccc2c3=O)cc1	3.38
O=C(CCN1CCCC1)Nc1ccc(/C=C2\CCn3c2nc2cc(Cl)ccc2c3=O)cc1	3.82
O=C(CC[n+]1ccccc1)Nc1ccc(/C=C2\CCn3c2nc2cc(Cl)ccc2c3=O)cc1	1.7
O=C(CCN1CCCC1)Nc1ccc(/C=C2\CCCn3c2nc2cc(Cl)ccc2c3=O)cc1	6.45
O=C(CCN1CCCCC1)Nc1ccc(/C=C2\CCn3c2nc2cc(Cl)ccc2c3=O)cc1	2.88
O=C(NCCCN1CCCC1)c1ccc(/C=C2\CCn3c2nc2cc(Cl)ccc2c3=O)cc1	0.61
CCN(CC)CCC(=O)Nc1ccc(/C=C2\CCn3c2nc2cc(Cl)ccc2c3=O)cc1	6.44
CN(C)CCCNC(=O)c1ccc(/C=C2\CCCn3c2nc2cc(Cl)ccc2c3=O)cc1	6.64
CN(C)CCNC(=O)c1ccc(/C=C2\CCn3c2nc2cc(Cl)ccc2c3=O)cc1	> 20
CN(C)CCNC(=O)c1ccc(/C=C2\CCCn3c2nc2cc(Cl)ccc2c3=O)cc1	> 40
O=C(NCCCN1CCCC1)c1ccc(/C=C2\CCCn3c2nc2cc(Cl)ccc2c3=O)cc1	0.5
CCN(CC)CCC(=O)Nc1ccc(/C=C2\CCCn3c2nc2cc(Cl)ccc2c3=O)cc1	2.34
O=C(NCCN1CCCC1)c1ccc(/C=C2\CCn3c2nc2cc(Cl)ccc2c3=O)cc1	11.1

test system: not listed separately; assay: Inhibition of amyloid beta (1 to 40) self-mediated aggregation assessed as inhibition of extended fibrils formation at 10 uM after 4 days by transmission electron microscopic analysis

SMILES	inhibition
O=C(CCN1CCCC1)Nc1ccc(/C=C2\CCn3c2nc2cc(Cl)ccc2c3=O)cc1	Active

test system: not listed separately; assay: Inhibition of amyloid beta (1 to 40) self-mediated aggregation assessed as reduction in beta-sheet structure formation at 20 uM after 3 days by CD spectropolarimetric analysis

SMILES	inhibition
O=C(CCN1CCCC1)Nc1ccc(/C=C2\CCn3c2nc2cc(Cl)ccc2c3=O)cc1	Active

molecular target: Acetylcholinesterase (Electrophorus electricus, UniProt O42275)
Sequence (O42275 whole entry): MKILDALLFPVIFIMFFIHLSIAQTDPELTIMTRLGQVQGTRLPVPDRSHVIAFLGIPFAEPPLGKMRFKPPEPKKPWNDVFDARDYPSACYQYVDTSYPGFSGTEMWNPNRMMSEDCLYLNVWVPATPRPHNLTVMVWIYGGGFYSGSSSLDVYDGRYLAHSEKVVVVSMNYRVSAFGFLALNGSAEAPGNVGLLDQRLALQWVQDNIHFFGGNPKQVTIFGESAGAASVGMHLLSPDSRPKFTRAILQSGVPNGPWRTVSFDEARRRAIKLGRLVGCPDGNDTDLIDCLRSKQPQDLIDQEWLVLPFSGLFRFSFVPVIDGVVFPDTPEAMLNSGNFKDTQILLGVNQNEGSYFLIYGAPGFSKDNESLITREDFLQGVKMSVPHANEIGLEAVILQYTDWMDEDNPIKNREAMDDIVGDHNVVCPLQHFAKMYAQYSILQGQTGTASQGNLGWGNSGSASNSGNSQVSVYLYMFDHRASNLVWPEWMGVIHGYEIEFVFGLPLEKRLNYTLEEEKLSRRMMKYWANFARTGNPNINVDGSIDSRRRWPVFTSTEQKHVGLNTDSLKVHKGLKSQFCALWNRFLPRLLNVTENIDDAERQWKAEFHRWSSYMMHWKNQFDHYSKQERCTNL
Description: Inhibition of electric eel acetylcholinesterase using acetylcholine chloride as substrate preincubated for 15 mins before substrate addition by Ellman's method

SMILES	IC50 [nM]
O=C(CCN1CCCCC1)Nc1ccc(/C=C2\CCCn3c2nc2cc(Cl)ccc2c3=O)cc1	31
CN(C)CCCNC(=O)c1ccc(/C=C2\CCn3c2nc2cc(Cl)ccc2c3=O)cc1	1420
O=C(NCCN1CCCC1)c1ccc(/C=C2\CCCn3c2nc2cc(Cl)ccc2c3=O)cc1	1510
O=C(CC[n+]1ccccc1)Nc1ccc(/C=C2\CCCn3c2nc2cc(Cl)ccc2c3=O)cc1	820
O=C(CCN1CCCC1)Nc1ccc(/C=C2\CCn3c2nc2cc(Cl)ccc2c3=O)cc1	41
O=C(CC[n+]1ccccc1)Nc1ccc(/C=C2\CCn3c2nc2cc(Cl)ccc2c3=O)cc1	49
O=C(CCN1CCCC1)Nc1ccc(/C=C2\CCCn3c2nc2cc(Cl)ccc2c3=O)cc1	> 1000
O=C(CCN1CCCCC1)Nc1ccc(/C=C2\CCn3c2nc2cc(Cl)ccc2c3=O)cc1	23
O=C(NCCCN1CCCC1)c1ccc(/C=C2\CCn3c2nc2cc(Cl)ccc2c3=O)cc1	1440
CCN(CC)CCC(=O)Nc1ccc(/C=C2\CCn3c2nc2cc(Cl)ccc2c3=O)cc1	60
CN(C)CCCNC(=O)c1ccc(/C=C2\CCCn3c2nc2cc(Cl)ccc2c3=O)cc1	2050
CN(C)CCNC(=O)c1ccc(/C=C2\CCn3c2nc2cc(Cl)ccc2c3=O)cc1	160
CN(C)CCNC(=O)c1ccc(/C=C2\CCCn3c2nc2cc(Cl)ccc2c3=O)cc1	360
O=C(NCCCN1CCCC1)c1ccc(/C=C2\CCCn3c2nc2cc(Cl)ccc2c3=O)cc1	1210
CCN(CC)CCC(=O)Nc1ccc(/C=C2\CCCn3c2nc2cc(Cl)ccc2c3=O)cc1	> 1000
O=C(NCCN1CCCC1)c1ccc(/C=C2\CCn3c2nc2cc(Cl)ccc2c3=O)cc1	45

test system: not listed separately; assay: Inhibition of amyloid beta (1 to 40) self-mediated aggregation at 10 uM after 72 hrs by thioflavin T based fluorometric assay relative to control

SMILES	inhibition [%]
O=C(CCN1CCCCC1)Nc1ccc(/C=C2\CCCn3c2nc2cc(Cl)ccc2c3=O)cc1	52.9
CN(C)CCCNC(=O)c1ccc(/C=C2\CCn3c2nc2cc(Cl)ccc2c3=O)cc1	56.5
O=C(NCCN1CCCC1)c1ccc(/C=C2\CCCn3c2nc2cc(Cl)ccc2c3=O)cc1	53.6
COc1cc(/C=C/C(=O)CC(=O)/C=C/c2ccc(O)c(OC)c2)ccc1O	48.8
O=C(CC[n+]1ccccc1)Nc1ccc(/C=C2\CCCn3c2nc2cc(Cl)ccc2c3=O)cc1	33
O=C(CCN1CCCC1)Nc1ccc(/C=C2\CCn3c2nc2cc(Cl)ccc2c3=O)cc1	62.3
O=C(CC[n+]1ccccc1)Nc1ccc(/C=C2\CCn3c2nc2cc(Cl)ccc2c3=O)cc1	49
O=C(CCN1CCCC1)Nc1ccc(/C=C2\CCCn3c2nc2cc(Cl)ccc2c3=O)cc1	53.5
O=C(CCN1CCCCC1)Nc1ccc(/C=C2\CCn3c2nc2cc(Cl)ccc2c3=O)cc1	49.8
O=C(NCCCN1CCCC1)c1ccc(/C=C2\CCn3c2nc2cc(Cl)ccc2c3=O)cc1	36.2
CCN(CC)CCC(=O)Nc1ccc(/C=C2\CCn3c2nc2cc(Cl)ccc2c3=O)cc1	39
CN(C)CCCNC(=O)c1ccc(/C=C2\CCCn3c2nc2cc(Cl)ccc2c3=O)cc1	49.8
CN(C)CCNC(=O)c1ccc(/C=C2\CCn3c2nc2cc(Cl)ccc2c3=O)cc1	36.8
CN(C)CCNC(=O)c1ccc(/C=C2\CCCn3c2nc2cc(Cl)ccc2c3=O)cc1	54.5
O=C(NCCCN1CCCC1)c1ccc(/C=C2\CCCn3c2nc2cc(Cl)ccc2c3=O)cc1	53.3
CCN(CC)CCC(=O)Nc1ccc(/C=C2\CCCn3c2nc2cc(Cl)ccc2c3=O)cc1	54.8
O=C(NCCN1CCCC1)c1ccc(/C=C2\CCn3c2nc2cc(Cl)ccc2c3=O)cc1	57.4
